The results in this text go back to patent US9376424B2, “Methods for treating post traumatic stress disorder” (AZEVAN PHARMACEUTICALS, INC., priority 2010, dated 2016).

Test [1] has as its target T1, human V1a receptor (Homo sapiens, UniProt P37288).
T1 construct: host or cells: CHO cells
Put plainly: Human vasopressin V1a receptor binding assay (3H-AVP competition, hV1a cell line). As for the experimental part: Human vasopression V1a receptor binding assay. A cell line expressing the human V1a receptor in CHO cells (henceforth referred to as the hV1a cell line) was obtained from Dr. Michael Brownstein, NIMH, Bethesda, Md., USA. The hV1a cDNA sequence is described by Thibonnier et al., Journal of Biological Chemistry, 269, 3304-3310 (1994), and the expression method was the same as described by Morel et al. (1992). The hV1a cell line was grown in alpha-MEM with 10% fetal bovine serum and 250 ug/ml G418 (Gibco, Grand Island, N.Y., USA). For competitive binding assay, hV1a cells were plated into 6-well culture plate at 1:10 dilution from a confluency flask, and maintained in culture for at least two days. Culture medium was then removed, cells were washed with 2 ml binding buffer (25 mM Hepes, 0.25% BSA, 1×DMEM, PH=7.0). To each well, 990 μl binding buffer containing 1 nM 3H-AVP was added, and followed by 10 μl series diluted Example compounds dissolved in DMSO. […] 100 nM cold AVP (Sigma) was used to assess non-specific binding. Cells were incubated for 45 minutes at 37° C., assay mixture was removed and each well was washed three times with PBS (pH=7.4). 1 ml 2% SDS was added per well and plates were let sit for 30 minutes. The whole content in a well was transferred to a scintillation vial. Each well was rinsed with 0.5 ml PBS which was then added to the corresponding vial. Scintillation fluid (Ecoscint, National Diagnostics, Atlanta, Ga.) was then added at 3 ml per vial. Samples were counted in a liquid scintillation counter (Beckman LS3801). IC50 values were calculated by Prism Curve fitting software.
All of the alkanedioic esters and amides exemplified in the foregoing examples dissolved in DMSO were tested in this assay. Binding curves were generated according to methods described by Thibonnier et al. (1994). [^3H]-AVP was added to the hV1a cell cultures followed by 10-fold dilutions of each test compound.

Test [2] addresses T1, human V1a receptor. The test is described as follows: Inhibition of phosphatidylinositol turnover (V1a). The class given is cell-based. From the text: Inhibition of phosphatidylinositol turnover (V1a). The physiological effects of vasopressin are mediated through specific G-protein coupled receptors. The vasopressin V1a receptor is coupled to the Gq/G11 family of G proteins and mediates phosphatidylinositol turnover. The agonist or antagonist character of the compounds of the invention may be determined by their ability to inhibit vasopressin-mediated turnover of phosphatidylinositol by the procedure described in the following paragraphs.
Cell culture and labeling of cells. Three days prior to the assay, near-confluent cultures of hV1a or hV1b cells were dissociated and seeded in 6-well tissue culture plates, about 100 wells being seeded from each 75 cm^2 flask (equivalent to 12:1 split ratio). Each well contained 1 mL of growth medium with 2 μCi of [^3H]myo-inositol (American Radiolabeled Chemicals, St. Louis, Mo., USA).
Incubations (V1a and V1b). All assays were in triplicate except for basal and 10 nM AVP (both n=6). AVP ((arginine vasopressin), Peninsula Labs, Belmont, Calif., USA (#8103)) was dissolved in 0.1N acetic acid. Test agents were dissolved in DMSO and diluted in DMSO to 200 times the final test concentration. […] The order of incubations was randomized. Incubations were initiated by removing the prelabeling medium, washing the monolayer once with 1 mL of 0.9% NaCl, and transferring the contents of the assay tubes to corresponding wells. The plates were incubated for 1 hour at 37° C. Incubations were terminated by removing the incubation medium and adding 500 μL of ice cold 5% (w/v) trichloroacetic acid and allowing the wells to stand for 15 min.
Measurement of [^3H]inositol phosphates (V1a and V1b). BioRad Poly-Prep Econo-Columns were packed with 0.3 mL of AG 1×−8 100-200 formate form resin. Resin was mixed 1:1 with water and 0.6 mL added to each column. Columns were then washed with 10 mL water. Scintillation vials (20 mL) were placed under each column. For each well, the contents were transferred to a minicolumn, after which the well was washed with 0.5 mL distilled water, which was also added to the minicolumn. The columns were then washed twice with 5 mL of 5 mM myo-inositol to elute free inositol. Aliquots (1 mL) were transferred to 20 mL scintillation vials and 10 mL of Beckman Ready Protein Plus added. After the myo-inositol wash was complete, empty scintillation vials were placed under the columns, and [^3H]inositol phosphates were eluted with three additions of 1 mL 0.5 M ammonium formate containing 0.1 N formic acid. Elution conditions were optimized to recover inositol mono-, bis-, and trisphosphates, without eluting the more metabolically inert tetrakis-, pentakis-, and hexakis-phosphates. To each sample was added 10 mL of a high salt capacity scintillation fluid such as Tru-Count High Salt Capacity or Packard Hionic-Fluor. Inositol lipids were measured by adding 1 mL of 2% sodium dodecyl sulfate (SDS) to each well, allowing the wells to stand for at least 30 min., and transferring the solution to 20 mL scintillation vials, to which 10 mL Beckman Ready Protein Plus scintillation fluid was then added. Samples were counted in a Beckman LS 3801 liquid scintillation counter for 10 min. Total inositol incorporation for each well was calculated as the sum of free inositol, inositol phosphates, and inositol lipids.
Data analysis (V1a and V1b): concentration-inhibition experiments. Concentration-response curves for AVP and concentration-inhibition curves for test agents versus 10 nM AVP were analyzed by nonlinear least-squares curve-fitting to a 4-parameter logistic function. Parameters for basal and maximal inositol phosphates, EC50 or IC50, and Hill coefficient were varied to achieve the best fit. The curve-fitting was weighted under the assumption that the standard deviation was proportional to dpm of radioactivity. Full concentration-response curves for AVP were run in each experiment. […]

T1 sequence (P37288 whole entry): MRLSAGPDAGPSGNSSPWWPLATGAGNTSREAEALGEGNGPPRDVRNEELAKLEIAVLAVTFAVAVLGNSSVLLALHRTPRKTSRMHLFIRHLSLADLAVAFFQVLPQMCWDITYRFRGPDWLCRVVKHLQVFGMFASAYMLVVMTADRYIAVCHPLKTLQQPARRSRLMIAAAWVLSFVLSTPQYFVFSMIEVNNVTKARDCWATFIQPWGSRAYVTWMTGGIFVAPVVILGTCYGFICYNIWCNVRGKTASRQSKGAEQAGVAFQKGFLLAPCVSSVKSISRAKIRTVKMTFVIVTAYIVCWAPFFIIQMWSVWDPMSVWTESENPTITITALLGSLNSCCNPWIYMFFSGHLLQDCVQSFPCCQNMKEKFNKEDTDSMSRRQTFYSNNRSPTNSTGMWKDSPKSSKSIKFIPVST

Consider `CN(Cc1cccc(C(F)(F)F)c1)C(=O)[C@@H](CC(=O)N1CCC(N2CCCCC2)CC1)N1C(=O)[C@@H](N2C(=O)OC[C@@H]2c2ccccc2)[C@H]1C=Cc1ccccc1` [Example 225, 2(R)-[[4-(Piperidinyl)piperidinyl]carbonylmethyl]-2-[3(S)-(4(S)-phenyloxazolidin-2-on-3-yl)-4(R)-(2-styryl)azetidin-2-on-1-yl]acetic acid N-methyl-N-(3-trifluoromethylbenzyl)amide], for which the IC50 (in general, the point on the concentration scale where inhibition reaches its midpoint) is 1.08 nM on human V1a receptor [1] (CHO cells expressing human V1a, 1 nM 3H-AVP, read-out: V1a Binding Affinity IC50); 1.86 to 2.13 nM on human V1a receptor [1] (read-out: IC50, dose-dependent competitive binding curve, hV1a cell line, [3H]-AVP); 2.68 nM at human V1a receptor [2] (versus 10 nM AVP, hV1a cells, read-out: IC50, suppression of the action of AVP (inositol phosphates)). In addition, the Ki – broadly, a dissociation constant, usually derived from enzyme kinetics or from competition with a known ligand – on human V1a receptor [1] (CHO cells expressing human V1a, 1 nM 3H-AVP, read-out: V1a Ki) is 0.66 nM; on human V1a receptor [1] (read-out: Ki, dose-dependent competitive binding curve, hV1a cell line, [3H]-AVP), 1.14 to 1.3 nM; at human V1a receptor [1] (selectivity table, read-out: inhibition data (Ki, nM), Receptor V1a), 0.66 nM; at human V1a receptor [2] (Cheng-Prusoff from IC50, hV1a cells, read-out: Ki, suppression of the action of AVP (inositol phosphates)), 0.05 nM.
